Results from patent publication US20220273593A1, “COMPOUNDS AND COMPOSITIONS FOR TREATING KIDNEY DISEASE” (JOHANN WOLFGANG GOETHE-UNIVERSITÄT FRANKFURT AM MAIN, priority 2019, published 2022).
pEC50, pIC50, pKd: −log10 of the molar value. “Also recorded” adds a separate entry of the source. One block for each molecule: values may come before it.

Assays:
sEH [1] = target: T1, sEH (Homo sapiens, UniProt P34913); experiment: sEH inhibition (cellular); type: cell-based
T1 sequence (P34913 1-555): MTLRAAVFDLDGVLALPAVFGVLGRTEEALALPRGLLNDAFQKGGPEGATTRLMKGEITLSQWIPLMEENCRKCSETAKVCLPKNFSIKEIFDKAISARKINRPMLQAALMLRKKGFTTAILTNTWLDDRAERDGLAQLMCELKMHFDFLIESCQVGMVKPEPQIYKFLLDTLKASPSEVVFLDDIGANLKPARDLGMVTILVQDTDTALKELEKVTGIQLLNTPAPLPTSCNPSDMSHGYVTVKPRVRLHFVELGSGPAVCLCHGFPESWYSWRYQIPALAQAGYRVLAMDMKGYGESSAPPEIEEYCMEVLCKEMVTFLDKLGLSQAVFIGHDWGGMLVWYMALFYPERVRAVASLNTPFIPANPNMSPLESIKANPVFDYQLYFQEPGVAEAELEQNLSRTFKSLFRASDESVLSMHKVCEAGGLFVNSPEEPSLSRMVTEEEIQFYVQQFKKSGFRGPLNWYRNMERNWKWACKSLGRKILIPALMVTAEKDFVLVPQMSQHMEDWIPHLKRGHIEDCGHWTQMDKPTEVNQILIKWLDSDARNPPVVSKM

FXR [2] = target: T2, FXR (Homo sapiens, UniProt Q96RI1); experiment: FXR activation (EC50, efficacy vs GW4064, mode); type: cell-based
T2 sequence (Q96RI1 1-486): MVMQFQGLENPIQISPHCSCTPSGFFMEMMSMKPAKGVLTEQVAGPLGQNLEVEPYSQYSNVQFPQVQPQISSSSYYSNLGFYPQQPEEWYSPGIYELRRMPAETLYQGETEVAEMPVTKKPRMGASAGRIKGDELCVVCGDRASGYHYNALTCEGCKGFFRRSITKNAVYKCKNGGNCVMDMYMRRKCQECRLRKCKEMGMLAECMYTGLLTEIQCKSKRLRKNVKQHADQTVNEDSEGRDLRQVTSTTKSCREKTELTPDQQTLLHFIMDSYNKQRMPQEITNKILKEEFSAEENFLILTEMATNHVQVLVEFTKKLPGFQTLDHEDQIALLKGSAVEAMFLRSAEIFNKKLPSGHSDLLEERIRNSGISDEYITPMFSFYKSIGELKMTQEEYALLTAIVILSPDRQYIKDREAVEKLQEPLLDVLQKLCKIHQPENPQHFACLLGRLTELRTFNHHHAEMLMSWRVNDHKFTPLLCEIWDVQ

C57BL/6JRj mice = experiment: DIO NASH model (Gubra Amylin NASH Diet); type: in vivo; conditions: 12 weeks, DM or MH 10 mg/kg, Obeticholic Acid 30 mg/kg
Procedure: In vivo effects of the compounds (DM and MH) were examined in a NASH model which is outlined by the timeline in FIG. 8A. 41 weeks before treatment NASH was induced in C57BL/6JRj mice by using the Gubra Amylin NASH Diet. After stratification, randomization and base-line measurements the mice were divided into four groups (16 mice per group). Each group was either dosed with 10 mg/kg of DM or MH, 30 mg/kg Obeticholic Acid or vehicle for 12 weeks respectively. […] After four weeks of treatment (FIG. 8C) and after termination (FIG. 8D) biochemical parameters were determined to examine and compare liver health (plasma alanine aminotransferase and plasma aspartate aminotransferase) and lipid homeostasis (plasma triglycerides and plasma total cholesterol) among treatment groups and healthy mice. Furthermore, livers of all animals were analyzed by histopathology and the use of immuno-histochemistry (FIG. 9 and FIG. 10). […] Inflammatory effects in the treatment groups are shown in FIG. 13a in a similar manner including a post-treatment histopathological analysis of inflammatory markers for the different treatment groups in FIG. 13b to investigate the anti-inflammatory in vivo activity of the compounds.

sEH [3] = target: T1, sEH; experiment: sEH inhibition (enzyme); type: biochemical
FXR [4] = target: T2, FXR; experiment: FXR binding (Kd)
UUO mice [5] = experiment: UUO renal fibrosis model, Protocol 1 (preventive pre-treatment); type: in vivo, Male C57Bl/6J mice
Procedure: This study was approved and conducted according to guidelines of the Institutional Animal Care and Use Committee, Medical College of Wisconsin. The Biomedical Resource Center at the Medical College of Wisconsin housed animals with free access to water and food and a 12/12 h light-dark cycle. Male C57B1/6J mice (8-10 weeks old) were purchased from Jackson Laboratories, Bar Harbor, Me. Mice were administered 2.0% isoflurane to induce anesthesia prior to UUO surgery. UUO surgery was conducted with by obstructing the left ureter proximal to the renal pelvis using a 6-o silk tie (Sharma et al., 2016; Kim et al., 2015). Mice with sham surgery went through the same procedure as the UUO mice except that the ureter was not ligated. Two experimental protocols were used to determine renal antifibrotic actions of DM509 and in both protocols the mice were subjected to Sham surgery (n=6/protocol) or Unilateral Ureteral Obstruction (UUO) surgery to induce renal fibrosis. In Protocol 1, mice went through UUO surgery after 24 hours pre-treatment of DM509 (10 mg/kg/d, p.o., n=8) or vehicle (n=8) and blood and kidney tissue were collected at day 10 of the UUO surgery. Mice of the Protocol 2 treated with DM509 (n=8) or vehicle (n=8) after 3 days of UUO surgery and continued for 7 days followed by blood and kidney tissue collection. […] Kidney hydroxyproline levels were measured using a commercially available kit (Sigma Aldrich, USA). Blood urea nitrogen (BUN) is measured using a kit from Arbor Assay, USA and monocyte chemoattractant protein-1 (MCP-1) was measured using kit from R&D Systems, Inc., USA. Renal mRNA expression for several fibrotic [fibronectin, α-smooth muscle actin (α-SMA), fibroblast specific protein-1 (FSP-1], tubular injury [NGAL, kidney injury molecule-1 (KIM-1), Claudins1,3,4,5], inflammatory (TNF-α, IL1β, IL-6, ICAM, VCAM) were studied by Real Time-PCR (RT-PCR) analysis. RNeasy Mini Kit (QIAGEN, Calif., USA) was used according to the manufacturer's protocol and messenger RNA (mRNA) was prepared from each sample homogenate. The mRNA samples were quantified spectrophotometrically and 1 μg of total RNA was reverse-transcribed to cDNA using iScript™ Select cDNA Synthesis Kit (Bio-Rad, Hercules, Calif., USA). Gene expression was quantified by iScript One-Step RT-PCR Kit with SYBR green using the MyiQ™ Single Color Real-Time PCR Detection System (Bio-Rad Laboratories, Hercules, Calif., USA). Dissociation curve analysis was accomplished with iQ5 Optical System Software, Version 2.1 (Bio-Rad Laboratories, Hercules, Calif., USA), and each amplified sample analysed for homogeneity. […] All samples were run in triplicate and fold change in gene expression compared to controls determined by comparative threshold cycle (Ct) method. […]

UUO mice [6] = experiment: UUO renal fibrosis model, Protocol 2 (interventional treatment); type: in vivo, Male C57Bl/6J mice
Procedure: This study was approved and conducted according to guidelines of the Institutional Animal Care and Use Committee, Medical College of Wisconsin. The Biomedical Resource Center at the Medical College of Wisconsin housed animals with free access to water and food and a 12/12 h light-dark cycle. Male C57B1/6J mice (8-10 weeks old) were purchased from Jackson Laboratories, Bar Harbor, Me. Mice were administered 2.0% isoflurane to induce anesthesia prior to UUO surgery. UUO surgery was conducted with by obstructing the left ureter proximal to the renal pelvis using a 6-o silk tie (Sharma et al., 2016; Kim et al., 2015). Mice with sham surgery went through the same procedure as the UUO mice except that the ureter was not ligated. Two experimental protocols were used to determine renal antifibrotic actions of DM509 and in both protocols the mice were subjected to Sham surgery (n=6/protocol) or Unilateral Ureteral Obstruction (UUO) surgery to induce renal fibrosis. In Protocol 1, mice went through UUO surgery after 24 hours pre-treatment of DM509 (10 mg/kg/d, p.o., n=8) or vehicle (n=8) and blood and kidney tissue were collected at day 10 of the UUO surgery. Mice of the Protocol 2 treated with DM509 (n=8) or vehicle (n=8) after 3 days of UUO surgery and continued for 7 days followed by blood and kidney tissue collection. Kidney samples for histological and immune-histological studies were fixed in 10% buffered formalin and stored at room temperature. Serum and tissue samples for biochemical and gene expression analysis were snap-frozen in liquid nitrogen and stored at […]. Kidney hydroxyproline levels were measured using a commercially available kit (Sigma Aldrich, USA). Blood urea nitrogen (BUN) is measured using a kit from Arbor Assay, USA and monocyte chemoattractant protein-1 (MCP-1) was measured using kit from R&D Systems, Inc., USA. Renal mRNA expression for several fibrotic [fibronectin, α-smooth muscle actin (α-SMA), fibroblast specific protein-1 (FSP-1], tubular injury [NGAL, kidney injury molecule-1 (KIM-1), Claudins1,3,4,5], inflammatory (TNF-α, IL1β, IL-6, ICAM, VCAM) were studied by Real Time-PCR (RT-PCR) analysis. RNeasy Mini Kit (QIAGEN, Calif., USA) was used according to the manufacturer's protocol and messenger RNA (mRNA) was prepared from each sample homogenate. The mRNA samples were quantified spectrophotometrically and 1 μg of total RNA was reverse-transcribed to cDNA using iScript™ Select cDNA Synthesis Kit (Bio-Rad, Hercules, Calif., USA). Gene expression was quantified by iScript One-Step RT-PCR Kit with SYBR green using the MyiQ™ Single Color Real-Time PCR Detection System (Bio-Rad Laboratories, Hercules, Calif., USA). Dissociation curve analysis was accomplished with iQ5 Optical System Software, Version 2.1 (Bio-Rad Laboratories, Hercules, Calif., USA), and each amplified sample analysed for homogeneity. Denaturation was done at 95° C. for 2 min followed by 40 cycles conducted at 95° C. for 10 s and at 60° C. for 30 s. All samples were run in triplicate and fold change in gene expression compared to controls determined by comparative threshold cycle (Ct) method. Target gene expression levels were determined by normalizing Ct values to two housekeeping genes. Statistical analyses were carried out using six samples from each experimental group and comparing to the control group. […] PAS-stained tissue was evaluated for tubular injury whilst PSR was used to determine collagen-positive renal interstitial fibrosis levels. Histopathological changes were scored as published previously and scores presented as a percentage area-fraction relative to the total area analysed. Tubular injury (PAS-cast areas) and interstitial fibrosis (PSR-collagen positive areas) scoring was performed in a blinded fashion by two observers. […]

[7] = DM509 pre-treatment 10 mg/kg/d p.o., day 10
[8] = interventional treatment 10 mg/kg/d, 7 days

pIC50 (sEH [1]): > 9.00
FXR mode of action (FXR [2]): selective modulator
pIC50 (sEH [3]): > 9.00
pKd (FXR [4]): 5.85
Compound: CC(C)(C)c1ccc(C(=O)NCc2ccc(NS(C)(=O)=O)cc2Cl)s1 [MH]
cumulative daily food intake, difference among treatment groups (C57BL/6JRj mice): neither differences in cummulative daily food intake

pIC50 (sEH [1]): 9.00
pEC50 (FXR [2]): 7.70
FXR efficacy (FXR [2]): 35 % of GW4064
FXR mode of action (FXR [2]): partial agonist
pIC50 (sEH [3]): 8.40
Compound: CC(C)(C)c1ccc(C(=O)NCc2ccc(NS(C)(=O)=O)cc2Cl)cc1 [DM509]
lower collagen positive area than vehicle (UUO mice [5]; [7]): 54%
lower renal mRNA expression of fibrotic markers (α-SMA, fibronectin) than vehicle (UUO mice [5]; [7]): 40-60%
lower renal mRNA expression of inflammatory markers (UUO mice [5]; [7]): 50-80%
kidney fibrosis (in words) (UUO mice [5]; preventive treatment 10 mg/kg/d): decreased UUO kidney fibrosis
cumulative daily food intake, difference among treatment groups (C57BL/6JRj mice): neither differences in cummulative daily food intake
renal CD45 positive inflammatory cell infiltration (in words) (UUO mice [6]): reduced infiltration of these cells
renal VE-cadherin mRNA and CD31 positive cells (in words) (UUO mice [6]): markedly mitigated the decrease of VE-cadherin and CD31 positive cells
renal inflammation: renal MCP-1 level and cytokine (TNF-α, IL1β, IL6) expression (in words) (UUO mice [6]): markedly mitigated renal inflammation; also recorded: reduced renal inflammation
renal mRNA expression of claudins (in words) (UUO mice [6]): re-stored the mRNA expressions of claudins 1,3,4 and 5; also recorded: restoring claudin expressions
renal mRNA expression of tubular injury markers KIM-1 and NGAL (in words) (UUO mice [6]): mitigated this marked elevation
renal mRNA expression of vascular inflammatory markers ICAM and VCAM (in words) (UUO mice [6]): mitigated elevated expression
peritubular vascular density assessed by CD31 expression (in words) (UUO mice [6]; interventional treatment): mitigated vascular density loss
EMT: mesenchymal (FSP-1, fibronectin, α-SMA) and epithelial (E-cadherin) marker expressions in kidney (in words) (UUO mice [6]; interventional treatment 10 mg/kg/d): markedly attenuated EMT; also recorded: markedly reduced EMT
reduction of BUN (UUO mice [6]; interventional treatment 10 mg/kg/d in drinking water, 7 days): 40%
reduction of collagen positive area (UUO mice [6]; [8]): 65%
reduction of kidney hydroxyproline content (UUO mice [6]; [8]): 41%
reduction of renal ICAM and VCAM gene expression (UUO mice [6]; [8]): 40-50%
reduction of tubular injury markers (KIM-1, NGAL) (UUO mice [6]; [8]): 25-50%
renal fibrosis: collagen positive area and renal hydroxyproline content (in words) (UUO mice [6]; treatment from day 3 after UUO for 7 days): markedly mitigated renal fibrosis

Compound: CC[C@H]1[C@@H](O)[C@@H]2[C@H](CC[C@]3(C)[C@@H]([C@H](C)CCC(=O)O)CC[C@@H]23)[C@@]2(C)CC[C@@H](O)C[C@@H]12 [Obeticholic Acid, reference compound]
cumulative daily food intake, difference among treatment groups (C57BL/6JRj mice): neither differences in cummulative daily food intake
